From ChEMBL document CHEMBL1201862, “PubChem BioAssay data set” (2004)
Active and inactive are the calls of the source.

Key:
[1] = target: T1, Calpain-2 catalytic subunit (Sus scrofa, UniProt P43367); assay: pig calpain II inhibitor potency, dose response, biochemical, fluorogenic peptide substrate (AID 1420); type: functional
T1 sequence (P43367 whole entry): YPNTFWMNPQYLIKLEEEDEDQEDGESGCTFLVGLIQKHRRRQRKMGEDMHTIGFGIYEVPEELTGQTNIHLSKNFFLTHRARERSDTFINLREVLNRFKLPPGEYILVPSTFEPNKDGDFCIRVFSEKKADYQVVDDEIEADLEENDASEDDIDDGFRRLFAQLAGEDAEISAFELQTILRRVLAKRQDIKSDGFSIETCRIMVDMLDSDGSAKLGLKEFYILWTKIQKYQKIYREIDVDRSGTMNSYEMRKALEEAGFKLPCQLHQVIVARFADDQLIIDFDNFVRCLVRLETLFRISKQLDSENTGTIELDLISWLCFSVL

Leucine aminopeptidase = target: T2, Leucine aminopeptidase (Plasmodium falciparum 3D7, UniProt Q8IL11); assay: P. falciparum M17LAP inhibitors, primary screen, biochemical, fluorogenic H-Leu-NHMec substrate, 1536-well (AID 1619); type: functional
T2 sequence (Q8IL11 whole entry): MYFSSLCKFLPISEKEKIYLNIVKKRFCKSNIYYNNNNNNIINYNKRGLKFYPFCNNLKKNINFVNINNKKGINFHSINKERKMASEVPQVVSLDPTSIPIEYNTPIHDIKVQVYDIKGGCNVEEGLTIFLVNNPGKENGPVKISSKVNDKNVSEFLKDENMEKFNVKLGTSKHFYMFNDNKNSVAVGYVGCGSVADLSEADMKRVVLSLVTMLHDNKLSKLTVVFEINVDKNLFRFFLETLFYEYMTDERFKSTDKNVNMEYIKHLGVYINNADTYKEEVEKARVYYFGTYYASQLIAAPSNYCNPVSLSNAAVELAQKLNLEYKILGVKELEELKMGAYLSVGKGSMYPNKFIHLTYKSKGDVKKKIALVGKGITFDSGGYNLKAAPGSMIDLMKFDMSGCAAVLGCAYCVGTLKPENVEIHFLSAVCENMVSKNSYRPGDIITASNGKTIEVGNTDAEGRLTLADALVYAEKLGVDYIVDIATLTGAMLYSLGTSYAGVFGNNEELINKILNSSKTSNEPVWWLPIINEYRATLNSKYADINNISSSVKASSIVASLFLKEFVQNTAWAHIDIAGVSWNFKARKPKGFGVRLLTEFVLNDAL

[2] = Artemis endonuclease inhibitor potency, dose response, biochemical, fluorescence intensity (AID 720701); type: functional;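 note: Artemis endonuclease enzyme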
[3] = cytotoxicity in HPDE-C7 cells, cell-based, fluorescence, HTS (AID 430); type: functional; details: Homo sapiens
[4] = cytotoxicity in KRAS-transformed pancreatic duct cells, primary screen, cell-based, fluorescence, HTS (AID 431); type: functional; details: Homo sapiens;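 note: cell line used: HPDE-C7K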
[5] = Luminescence Cell-Based Dose Retest to Confirm Inhibitors of Cancer Stem Cells. [Related pubchem assays (depositor defined):AID2717, AID2721]; type: functional; details: Homo sapiens
[6] = HEp-2 cell cytotoxicity, dose response, cytotoxicity control for RSV inhibitor project, HTS (AID 2410); type: functional; details: human respiratory syncytial virus
Cytochrome P450 2C9 = Cytochrome P450 2C9 (Homo sapiens, UniProt P11712)
Cytochrome P450 2C9, sequence (P11712 whole entry): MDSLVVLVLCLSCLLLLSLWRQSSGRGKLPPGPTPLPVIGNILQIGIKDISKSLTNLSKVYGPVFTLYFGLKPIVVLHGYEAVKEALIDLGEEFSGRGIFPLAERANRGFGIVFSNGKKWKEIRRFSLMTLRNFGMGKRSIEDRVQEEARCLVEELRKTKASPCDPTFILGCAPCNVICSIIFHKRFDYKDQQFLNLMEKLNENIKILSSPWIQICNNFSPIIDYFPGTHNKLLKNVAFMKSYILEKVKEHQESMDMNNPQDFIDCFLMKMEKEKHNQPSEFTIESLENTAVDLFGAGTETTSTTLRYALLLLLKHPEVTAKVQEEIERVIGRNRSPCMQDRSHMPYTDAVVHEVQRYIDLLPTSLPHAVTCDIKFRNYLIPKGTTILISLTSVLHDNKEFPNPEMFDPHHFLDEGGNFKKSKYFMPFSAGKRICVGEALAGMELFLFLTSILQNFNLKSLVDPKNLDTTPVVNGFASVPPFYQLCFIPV

Cytochrome P450 2D6 = Cytochrome P450 2D6 (Homo sapiens, UniProt P10635);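 note: CYP2D6 member of a cytochrome P450 panel assay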
Cytochrome P450 2D6, sequence (P10635 whole entry): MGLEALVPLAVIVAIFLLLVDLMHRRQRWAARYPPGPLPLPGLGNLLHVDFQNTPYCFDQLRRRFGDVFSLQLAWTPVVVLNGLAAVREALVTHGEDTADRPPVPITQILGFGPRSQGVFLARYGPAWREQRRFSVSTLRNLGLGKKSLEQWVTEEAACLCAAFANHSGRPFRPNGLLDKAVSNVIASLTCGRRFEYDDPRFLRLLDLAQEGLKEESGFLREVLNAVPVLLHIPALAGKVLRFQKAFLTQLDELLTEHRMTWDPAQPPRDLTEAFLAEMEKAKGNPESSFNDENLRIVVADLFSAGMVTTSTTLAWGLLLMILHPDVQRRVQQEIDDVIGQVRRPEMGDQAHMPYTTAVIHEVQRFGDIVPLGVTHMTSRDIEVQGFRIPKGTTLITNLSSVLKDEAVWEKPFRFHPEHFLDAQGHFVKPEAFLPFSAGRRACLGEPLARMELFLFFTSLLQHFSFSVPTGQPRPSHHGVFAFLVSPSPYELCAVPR

[7] = target: T3, DNA repair protein RAD52 homolog (Homo sapiens, UniProt P43351); type: functional, biochemical
T3 sequence (P43351 whole entry): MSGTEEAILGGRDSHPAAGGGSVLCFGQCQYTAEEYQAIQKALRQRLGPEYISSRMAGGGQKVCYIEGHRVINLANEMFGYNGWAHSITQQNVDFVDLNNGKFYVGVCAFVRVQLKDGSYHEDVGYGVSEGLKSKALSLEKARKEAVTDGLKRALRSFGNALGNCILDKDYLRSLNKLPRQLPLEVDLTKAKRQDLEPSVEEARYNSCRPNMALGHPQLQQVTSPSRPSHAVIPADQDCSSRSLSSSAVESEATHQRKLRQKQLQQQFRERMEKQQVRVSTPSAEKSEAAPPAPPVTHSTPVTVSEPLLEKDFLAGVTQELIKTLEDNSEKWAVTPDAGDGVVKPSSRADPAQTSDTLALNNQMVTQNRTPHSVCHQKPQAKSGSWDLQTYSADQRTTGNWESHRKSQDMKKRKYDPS

[8] = target: T4, Ubiquitin-conjugating enzyme E2 N (Homo sapiens, UniProt P61088); type: functional;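 note: Dose-response confirmation in a TR-FRET assay detecting UBC13-driven polyubiquitin chain formation, inhibition measured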
T4 sequence (P61088 whole entry): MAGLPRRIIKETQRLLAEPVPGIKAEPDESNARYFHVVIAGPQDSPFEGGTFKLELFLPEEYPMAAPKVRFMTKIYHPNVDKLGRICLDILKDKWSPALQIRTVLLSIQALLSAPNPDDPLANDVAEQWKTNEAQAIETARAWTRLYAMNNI

Estrogen receptor beta [9] = target: T5, Estrogen receptor beta (Homo sapiens, UniProt Q92731); assay: ERβ–SRC-3 coactivator interaction inhibitors, confirmation, orthogonal assay, biochemical, ELISA, streptavidin-HRP readout (AID 1060)
T5 sequence (Q92731 whole entry): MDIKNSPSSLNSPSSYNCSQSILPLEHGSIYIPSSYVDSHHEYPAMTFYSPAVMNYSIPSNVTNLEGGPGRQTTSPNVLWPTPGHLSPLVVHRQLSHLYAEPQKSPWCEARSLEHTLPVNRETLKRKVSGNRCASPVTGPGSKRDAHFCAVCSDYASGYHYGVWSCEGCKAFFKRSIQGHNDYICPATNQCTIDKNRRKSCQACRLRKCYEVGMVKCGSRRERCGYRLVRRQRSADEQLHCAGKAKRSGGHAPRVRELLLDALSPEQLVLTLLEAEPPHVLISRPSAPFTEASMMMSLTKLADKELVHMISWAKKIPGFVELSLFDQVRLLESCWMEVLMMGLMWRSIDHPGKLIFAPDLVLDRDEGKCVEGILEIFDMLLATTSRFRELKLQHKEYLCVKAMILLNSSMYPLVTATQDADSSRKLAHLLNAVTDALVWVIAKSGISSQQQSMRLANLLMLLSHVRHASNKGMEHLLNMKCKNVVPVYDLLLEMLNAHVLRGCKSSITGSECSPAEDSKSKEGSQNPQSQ

Estrogen receptor beta [10] = target: T5, Estrogen receptor beta
[11] = target: T6, Rac GTPase-activating protein 1 (Homo sapiens, UniProt Q9H0H5); assay: MgcRacGAP GTPase-activating activity inhibitors, confirmation, biochemical, ADP Hunter fluorescence, primary and confirmatory (AID 624330); type: functional
T6 sequence (Q9H0H5 whole entry): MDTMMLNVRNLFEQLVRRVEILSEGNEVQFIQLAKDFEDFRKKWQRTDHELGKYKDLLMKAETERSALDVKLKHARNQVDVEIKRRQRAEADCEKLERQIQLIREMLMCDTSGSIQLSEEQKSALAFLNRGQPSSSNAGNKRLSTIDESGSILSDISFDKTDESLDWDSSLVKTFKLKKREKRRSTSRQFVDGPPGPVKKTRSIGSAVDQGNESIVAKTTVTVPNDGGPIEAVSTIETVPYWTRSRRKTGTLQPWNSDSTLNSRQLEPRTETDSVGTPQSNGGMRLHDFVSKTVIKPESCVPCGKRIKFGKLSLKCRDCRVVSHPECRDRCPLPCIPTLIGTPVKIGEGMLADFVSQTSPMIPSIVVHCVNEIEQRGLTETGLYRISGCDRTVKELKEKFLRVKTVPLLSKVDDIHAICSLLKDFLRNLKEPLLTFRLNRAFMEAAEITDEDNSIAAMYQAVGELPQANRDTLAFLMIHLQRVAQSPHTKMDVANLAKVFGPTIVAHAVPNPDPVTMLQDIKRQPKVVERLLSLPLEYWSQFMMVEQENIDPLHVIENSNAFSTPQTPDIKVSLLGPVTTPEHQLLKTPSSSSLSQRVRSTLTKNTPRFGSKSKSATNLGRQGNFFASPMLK

[12] = Luminescence Cell-Based Dose Response HTS to Identify Inhibitors of 5'UTR Stem-Loop Driven Prion Protein mRNA Translation in H4 Neuroglioblastoma Cells. [Related pubchem assays: 1827 (Project Summary), 1813 (Primary HTS)]; type: functional
[13] = inhibitors of SNCA 5'UTR-driven reporter translation, confirmation, H4 neuroglioma cells, luminescence (AID 1988); type: functional, cell-based
Paired box protein Pax-8 = Paired box protein Pax-8 (Homo sapiens, UniProt Q06710); assay: inhibitors of PAX8-driven TPO luciferase reporter, dose response, RMG-I cells, cherry-pick (AID 687027); type: functional, cell-based;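 note: luciferase reporter driven by Pax8 target thyroperoxidase promoter measured by SteadyGlo luminescence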
Paired box protein Pax-8, sequence (Q06710 whole entry): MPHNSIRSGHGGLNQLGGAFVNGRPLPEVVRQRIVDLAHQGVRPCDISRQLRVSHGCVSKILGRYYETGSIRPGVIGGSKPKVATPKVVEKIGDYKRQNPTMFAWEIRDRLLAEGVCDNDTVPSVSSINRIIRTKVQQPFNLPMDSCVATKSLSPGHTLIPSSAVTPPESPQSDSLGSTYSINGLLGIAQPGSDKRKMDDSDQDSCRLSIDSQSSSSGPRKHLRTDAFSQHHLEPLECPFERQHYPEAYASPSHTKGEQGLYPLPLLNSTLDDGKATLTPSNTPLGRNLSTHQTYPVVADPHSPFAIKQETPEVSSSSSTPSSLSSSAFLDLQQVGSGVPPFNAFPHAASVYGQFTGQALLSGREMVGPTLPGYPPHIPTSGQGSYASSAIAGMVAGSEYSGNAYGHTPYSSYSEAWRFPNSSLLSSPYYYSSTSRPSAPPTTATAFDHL

[14] = NIH:OVCAR-3 ovarian cancer cell cytotoxicity, dose response, PAX8 inhibitor project, plate reader, dry powder samples (AID 743044); type: functional, cell-based
[15] = cytotoxicity in OVCAR8 ovarian cancer cells, dose response, PAX8 project, cell-based, plate reader, dry powder samples (AID 743197); type: functional; details: OVCAR-8
[16] = target: FAD-linked sulfhydryl oxidase ALR (Homo sapiens, UniProt P55789); assay: inhibitors of human ALR sulfhydryl oxidase, dose response, biochemical, H2O2 detection, luminescence, cherry-pick (AID 493248)
FAD-linked sulfhydryl oxidase ALR, sequence (P55789 whole entry): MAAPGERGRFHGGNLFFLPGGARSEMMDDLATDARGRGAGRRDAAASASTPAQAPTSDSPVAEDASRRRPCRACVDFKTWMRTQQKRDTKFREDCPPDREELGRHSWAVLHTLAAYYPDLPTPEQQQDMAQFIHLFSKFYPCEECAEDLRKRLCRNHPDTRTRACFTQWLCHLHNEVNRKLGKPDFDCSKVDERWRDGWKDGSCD

For `N#CC(C#N)=C(N)CSc1cccc[n+]1[O-]`, the IC50 [1] was > 50 µM (not active).

In the case of `CCOC(=O)c1c(NC(=O)C2C3C=CC(C3)C2C(=O)O)sc2c1CCC(C)C2` (stereo not given), the IC50 (Leucine aminopeptidase) is reported as 15.7 µM (active).

For `CC(C)(C)OC(=O)NCCCC[C@H](NC(=O)c1[nH]cnc1C(=O)NCc1ccccc1)C(=O)OC(C)(C)C`, the IC50 [1] was 10.5 µM (not active).

In the case of `CC(C)(C)Nc1nc(NN)nc(NC(C)(C)C)n1`, the IC50 [2] is reported as 17.9 µM (active).

With `CCCCN(C)c1nc(-c2ccco2)c2c(c1C#N)CC(C)(C)OC2` the EC50 [3] was 13.9 µM (active), the EC50 [4] was 13.9 µM (active) and the AC50 [5] was 7.53 µM (active).

With `Cc1ccc(Cn2c(C)nc3c(c2=O)c2nc4ccccc4nc2n3Cc2ccco2)cc1` the CC50 [6] was 29 µM (active) and the IC50 [2] was > 20 µM (inactive).

For `Cc1ccccc1C(=O)Nc1nncs1`, the IC50 (Leucine aminopeptidase) was 25.4 µM (active).

In the case of `O=C(CCC1CCCCC1)Nc1c2c(nn1-c1ccc(F)cc1)CS(=O)(=O)C2`, the AC50 (Cytochrome P450 2C9) is reported as 12.6 µM (inconclusive), the AC50 (Cytochrome P450 2D6) is reported as 11.2 µM (inconclusive) and the EC50 [3] is reported as > 20 µM (not active). For the same molecule, the EC50 [4] was > 20 µM (not active).

For `COc1cccc2sc(N(CCCN(C)C)C(=O)c3sc4ccccc4c3Cl)nc12`, the AC50 [7] was 6.13 µM (active) and the IC50 [8] was > 20 µM (inactive).

For `O=C(Cc1cccs1)Nc1ccc(-c2nnn(CC(=O)N3CCOCC3)n2)cc1`, the IC50 (Estrogen receptor beta [9]) was > 50 µM (not active) and the IC50 (Estrogen receptor beta [10]) was 2.92 µM (active).

In the case of `CC1(C)Nc2cccc3cccc(c23)N1`, the IC50 [11] is reported as 21.6 µM (active) and the AC50 [7] is reported as 25.6 µM (active).

In the case of `O=[N+]([O-])c1cc(/C=N/n2cnnc2)ccc1N1CCCC1`, the EC50 [12] is reported as 16.9 µM (active), the IC50 [1] is reported as 36.6 µM (not active) and the EC50 [13] is reported as 9.55 µM (active).

In the case of `COc1cccc(C#Cc2ccc3c(c2)O[C@@H](CN(C)C(=O)c2ccccn2)[C@H](C)CN([C@@H](C)CO)S3(=O)=O)c1`, the AC50 (Paired box protein Pax-8) is reported as 5.17 µM (active), the AC50 [14] is reported as 41.2 µM (active) and the AC50 [15] is reported as 34.1 µM (active).

In the case of `C[C@H]1CCCCO[C@H](CN(C)Cc2ccc(C(F)(F)F)cc2)[C@@H](C)CN([C@@H](C)CO)C(=O)c2cc(NS(=O)(=O)c3cccs3)ccc2O1`, the AC50 (Paired box protein Pax-8) is reported as 5.95 µM (active), the AC50 [14] is reported as 37.6 µM (active) and the AC50 [15] is reported as > 70 µM (inactive).

In the case of `CC(C)(C)c1nnc2sc(SC/C(O)=C(\C#N)c3nc4ccccc4[nH]3)nn2c1=O`, the IC50 (Estrogen receptor beta [9]) is reported as 40.6 µM (not active) and the IC50 (Estrogen receptor beta [10]) is reported as 4 µM (active).

For `O=C(N/N=C/c1ccc(O)c(O)c1)C1c2ccccc2Oc2ccccc21`, the AC50 [16] was 0.439 µM (active), the IC50 [11] was 50.6 µM (active) and the IC50 [2] was > 20 µM (inactive).

With `O=C(CC1Sc2ccccc2NC1=O)Nc1cccc(C(=O)O)c1` (stereo not given) the IC50 (Leucine aminopeptidase) was 2.94 µM (active).
